Laboratory results published in PubChem BioAssay AID248 (DTP/NCI, 2004).
Values joined by “and” are separate entries in the source; they are usually repeats but may differ in a detail not shown here. Equal values may be shown once. Toxic doses and inconclusive results are not listed. Cut-off read from the data, not from the text of the source: active = T/C of 150% or more; inactive = T/C below 125%.

Tested on: L1210 leukemia ip in BDF1 mice, survival T/C
Test: NCI In Vivo Anticancer Drug Screen. Data for tumor model L1210 Leukemia (intraperitoneal) in B6D2F1 (BDF1) mice
Settings: endpoint: mean survival time, higher = longer survival
How it was run: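 Ratio derived from survival: compound-dosed mice over vehicle-dosed mice, all bearing a transplantable tumor.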

[1] = dose: 100.0 mg/kg/injection, schedule: Q04DX002 (ip), vehicle: Klucel (hydroxypropylcellulose) (HPC)
[2] = dose: 200.0 mg/kg/injection, schedule: Q04DX002 (ip), vehicle: Klucel (hydroxypropylcellulose) (HPC)
[3] = dose: 400.0 mg/kg/injection, schedule: Q04DX002 (ip), vehicle: Klucel (hydroxypropylcellulose) (HPC)
[4] = dose: 100.0 mg/kg/injection, schedule: Q01DX009 (ip), vehicle: saline
[5] = dose: 200.0 mg/kg/injection, schedule: Q01DX009 (ip), vehicle: saline
[6] = dose: 100.0 mg/kg/injection, schedule: Q01DX009 (ip), vehicle: Klucel (hydroxypropylcellulose) (HPC)
[7] = dose: 200.0 mg/kg/injection, schedule: Q01DX009 (ip), vehicle: Klucel (hydroxypropylcellulose) (HPC)
[8] = dose: 100.0 mg/kg/injection, schedule: Q04DX003 (ip), vehicle: saline with Tween-80
[9] = dose: 200.0 mg/kg/injection, schedule: Q04DX003 (ip), vehicle: saline with Tween-80
[10] = dose: 400.0 mg/kg/injection, schedule: Q04DX003 (ip), vehicle: saline with Tween-80
[11] = dose: 50.0 mg/kg/injection, schedule: Q01DX009 (ip), vehicle: saline with Tween-80
[12] = dose: 100.0 mg/kg/injection, schedule: Q01DX009 (ip), vehicle: saline with Tween-80
[13] = dose: 100.0 mg/kg/injection, schedule: Q04DX003 (ip), vehicle: Klucel (hydroxypropylcellulose) (HPC)
[14] = dose: 200.0 mg/kg/injection, schedule: Q04DX003 (ip), vehicle: Klucel (hydroxypropylcellulose) (HPC)
[15] = dose: 400.0 mg/kg/injection, schedule: Q04DX003 (ip), vehicle: Klucel (hydroxypropylcellulose) (HPC)
[16] = dose: 400.0 mg/kg/injection, schedule: Q01DX009 (ip), vehicle: Klucel (hydroxypropylcellulose) (HPC)
[17] = dose: 200.0 mg/kg/injection, schedule: Q01DX009 (ip), vehicle: saline with Tween-80

Measured: T/C

C/C(=N\NS(C)(=O)=O)C(C)(C)C
inactive: dose: 75.0 mg/kg/injection, schedule: Q01DX001 (ip), vehicle: other 103 % of control | dose: 150.0 mg/kg/injection, schedule: Q01DX001 (ip), vehicle: other 103 % of control | dose: 300.0 mg/kg/injection, schedule: Q01DX001 (ip), vehicle: other 97 % of control

CN1C(=O)CCN(CCN2CCC(=O)N(C)C2=S)C1=S
inactive: [1] 114 % of control | [2] 103 % of control | [3] 96 % of control

O=c1[nH]cnc2c1ncn2C1OC(CF)C(O)C1O (centres undefined)
inactive: [4] 101 % of control | dose: 100.0 mg/kg/injection, schedule: Q04DX003 (ip), vehicle: other 112 % of control | [5] 101 % of control | dose: 200.0 mg/kg/injection, schedule: Q04DX003 (ip), vehicle: other 103 % of control | dose: 400.0 mg/kg/injection, schedule: Q01DX009 (ip), vehicle: saline 101 % of control | dose: 400.0 mg/kg/injection, schedule: Q04DX003 (ip), vehicle: other 98 % of control

C=CCc1ccc(OC(=O)Nc2ccc(C(=O)OCC)cc2)c(OC)c1
inactive: [6] 90 % of control | [7] 90 % of control

CC[CH2][Sn]([Cl])([Cl])[CH2]CC
inactive: dose: 0.13 mg/kg/injection, schedule: Q01DX009 (ip), vehicle: saline 98 % of control | dose: 0.25 mg/kg/injection, schedule: Q01DX009 (ip), vehicle: saline 112 % of control | dose: 0.5 mg/kg/injection, schedule: Q01DX009 (ip), vehicle: saline 105 % of control and 108 % of control | dose: 1.0 mg/kg/injection, schedule: Q01DX009 (ip), vehicle: saline 101 % of control | dose: 2.0 mg/kg/injection, schedule: Q01DX009 (ip), vehicle: saline 101 % of control | dose: 4.0 mg/kg/injection, schedule: Q01DX009 (ip), vehicle: saline 104 % of control

CC(C)(Br)C(=O)c1ccc(Cl)s1
inactive: [8] 96 % of control | [9] 107 % of control | [10] 105 % of control

CC1(C)CCOc2ccccc21
inactive: [11] 88 % of control | [12] 94 % of control

O=C(CCl)NCCCC1CCCCC1
inactive: dose: 12.5 mg/kg/injection, schedule: Q04DX002 (ip), vehicle: saline 100 % of control | dose: 25.0 mg/kg/injection, schedule: Q04DX002 (ip), vehicle: saline 96 % of control | dose: 50.0 mg/kg/injection, schedule: Q04DX002 (ip), vehicle: saline 104 % of control

COc1c2c(cc3c(C)cc(=O)n(C)c13)c(C)cc(=O)n2C
inactive: [13] 99 % of control | [14] 92 % of control | [15] 101 % of control

O=[N+]([O-])c1cc(N(c2ccccc2)c2ccccc2)c(Cl)cc1Cl
inactive: dose: 100.0 mg/kg/injection, schedule: Q01DX001 (ip), vehicle: carboxymethylcellulose (CMC) 111 % of control | dose: 200.0 mg/kg/injection, schedule: Q01DX001 (ip), vehicle: carboxymethylcellulose (CMC) 103 % of control | dose: 400.0 mg/kg/injection, schedule: Q01DX001 (ip), vehicle: carboxymethylcellulose (CMC) 95 % of control

O=C(O)c1ccccc1C(=O)Nc1cc(Cl)ccc1Cl
inactive: dose: 50.0 mg/kg/injection, schedule: Q01DX009 (ip), vehicle: Klucel (hydroxypropylcellulose) (HPC) 94 % of control | [6] 98 % of control | [13] 98 % of control | [7] 93 % of control | [14] 89 % of control

CC[N+]1(C)CCC(CN2c3ccccc3Sc3ccccc32)C1 (centres undefined)
inactive: [8] 100 % of control | [9] 103 % of control | [10] 100 % of control

CC(=O)c1cccc(N=Cc2ccc(Cl)cc2Cl)c1
inactive: [6] 95 % of control | [7] 93 % of control | [16] 93 % of control

COc1ccc2ncc(CO)cc2c1
inactive: dose: 100.0 mg/kg/injection, schedule: Q04DX003 (ip), vehicle: saline 96 % of control | dose: 200.0 mg/kg/injection, schedule: Q04DX003 (ip), vehicle: saline 98 % of control | dose: 400.0 mg/kg/injection, schedule: Q04DX003 (ip), vehicle: saline 112 % of control

O=C(O)/C=C\C(=O)NNC(=O)/C=C\C(=O)O
inactive: [11] 101 % of control | dose: 50.0 mg/kg/injection, schedule: Q01DX009 (ip), vehicle: saline 100 % of control | [12] 96 % of control | [4] 100 % of control | [17] 104 % of control | [5] 93 % of control

CC1CCCC(C)(C)C1NCc1cc(Br)cc(Br)c1O (centres undefined)
inactive: [6] 107 % of control | [16] 88 % of control

CC(NC(=O)OCc1ccccc1)C(=O)NC(CCC(=O)OCc1ccccc1)C(=O)OCc1ccccc1 (centres undefined)
inactive: [8] 93 % of control | [9] 92 % of control | [10] 92 % of control

NC(=S)c1ccncc1
inactive: [12] 104 % of control | [8] 103 % of control | [17] 104 % of control | [9] 109 % of control | dose: 400.0 mg/kg/injection, schedule: Q01DX009 (ip), vehicle: saline with Tween-80 112 % of control | [10] 101 % of control

CC1(C)OC2OC(C(O)CO)C(O)C2O1 (centres undefined)
inactive: dose: 100.0 mg/kg/injection, schedule: Q04DX002 (ip), vehicle: saline 86 % of control | dose: 200.0 mg/kg/injection, schedule: Q04DX002 (ip), vehicle: saline 107 % of control | dose: 400.0 mg/kg/injection, schedule: Q04DX002 (ip), vehicle: saline 90 % of control

CCOC(=O)/C(C#N)=C/c1ccc2n1Cc1cc(OC)c(OC)cc1N(C(C)=O)C2
inactive: dose: 25.0 mg/kg/injection, schedule: Q04DX002 (ip), vehicle: Klucel (hydroxypropylcellulose) (HPC) 95 % of control | dose: 50.0 mg/kg/injection, schedule: Q04DX002 (ip), vehicle: Klucel (hydroxypropylcellulose) (HPC) 93 % of control | [1] 87 % of control

COc1ccc(/C=C/C=C/C(=O)O)cc1OC
inactive: dose: 50.0 mg/kg/injection, schedule: Q01DX001 (ip), vehicle: other 102 % of control | dose: 100.0 mg/kg/injection, schedule: Q01DX001 (ip), vehicle: other 98 % of control | dose: 200.0 mg/kg/injection, schedule: Q01DX001 (ip), vehicle: other 107 % of control | dose: 400.0 mg/kg/injection, schedule: Q01DX001 (ip), vehicle: other 91 % of control

COC(=O)C1CN1C(c1ccccc1)(c1ccccc1)c1ccccc1 (centres undefined)
inactive: dose: 100.0 mg/kg/injection, schedule: Q01DX001 (ip), vehicle: saline with Tween-80 92 % of control | [8] 94 % of control | dose: 200.0 mg/kg/injection, schedule: Q01DX001 (ip), vehicle: saline with Tween-80 100 % of control | [9] 98 % of control | dose: 400.0 mg/kg/injection, schedule: Q01DX001 (ip), vehicle: saline with Tween-80 90 % of control | [10] 90 % of control

C(CC1CCCCC1)=C(CCC1CCCCC1)CCC1CCCCC1
inactive: [8] 103 % of control | [9] 105 % of control | [10] 100 % of control

O=C(OC1CC=CCC1)c1ccc([N+](=O)[O-])cc1 (centres undefined)
inactive: dose: 100.0 mg/kg/injection, schedule: Q01DX001 (ip), vehicle: Klucel (hydroxypropylcellulose) (HPC) 86 % of control | dose: 200.0 mg/kg/injection, schedule: Q01DX001 (ip), vehicle: Klucel (hydroxypropylcellulose) (HPC) 98 % of control | dose: 400.0 mg/kg/injection, schedule: Q01DX001 (ip), vehicle: Klucel (hydroxypropylcellulose) (HPC) 96 % of control

CCN(CC)Cc1cc(Nc2c3ccc(Cl)cc3nc3ccc(OC)cc23)ccc1O
inactive: [1] 105 % of control | [2] 112 % of control | [3] 108 % of control

O=S1(=O)C2CCCC1(Cl)CCC2
inactive: dose: 75.0 mg/kg/injection, schedule: Q01DX001 (ip), vehicle: saline 107 % of control | dose: 150.0 mg/kg/injection, schedule: Q01DX001 (ip), vehicle: saline 102 % of control | dose: 300.0 mg/kg/injection, schedule: Q01DX001 (ip), vehicle: saline 93 % of control

CC(=O)Nc1c(C)cc(C)c(F)c1Br
inactive: dose: 37.5 mg/kg/injection, schedule: Q01DX001 (ip), vehicle: Klucel (hydroxypropylcellulose) (HPC) 97 % of control | dose: 75.0 mg/kg/injection, schedule: Q01DX001 (ip), vehicle: Klucel (hydroxypropylcellulose) (HPC) 95 % of control | dose: 150.0 mg/kg/injection, schedule: Q01DX001 (ip), vehicle: Klucel (hydroxypropylcellulose) (HPC) 95 % of control

CCCCCCCCCC1=NN(C2=NCCCC2)C(=O)C1
inactive: [13] 100 % of control | [14] 101 % of control | [15] 95 % of control
